In US11000481B2, “Composite preparation of mosapride and rabeprazole” (KOREA UNITED PHARM. INC., priority 2015, dated 2021):
Where two headings read alike, the source gives them in different places.

Key:
[1] = Stability of rabeprazole sodium depending on pH; format: physicochemical; details: condition of pH 9.0
Excerpt: Accordingly, it was difficult to conduct a dissolution test for the rabeprazole sodium drug in general conditions.

[2] = exposed to an acidic condition of pH 6.8 or below; conventionally known; cited from earlier work

SMILES: COCCCOc1ccnc(C[S+]([O-])c2nc3ccccc3[nH]2)c1C (centres unmarked) [rabeprazole sodium]
- Stability of rabeprazole sodium [1]: highly stable
- Stability of rabeprazole sodium [2]: degraded
